Test results as given in BindingDB's records for doi:10.1021/jm000181f (Deakin University, 2001).

Experiments:
[1] = Dissociation constant of [3H]DPCPX binding to adenosine A1 receptor (AR) at 200 nM
[2] = Dissociation constant of [3H]DPCPX binding to adenosine A1 receptor (AR) at 100 nM
[3] = Dissociation constant of [3H]-DPCPX binding to adenosine A1 receptor (AR) at 0.1 nM
[4] = Dissociation constant of [3H]DPCPX binding to adenosine A1 receptor (AR) at 0.05 nM
[5] = Dissociation constant of [3H]DPCPX binding to adenosine A1 receptor (AR) at 5 nM
[6] = Dissociation constant of [3H]-DPCPX binding to adenosine A1 receptor(AR) at 0.05 nM
[7] = Dissociation constant of [3H]DPCPX binding to adenosine A1 receptor(AR) at 0.1 nM

With `CCCn1c(=O)c2[nH]c(C3CCCCC3)nc2n(Cc2ccc(S(=O)(=O)F)cc2)c1=O` [4-(8-Cyclohexyl-2,6-dioxo-1-propyl-1,2,6,7-tetrahydro-purin-3-ylmethyl)-benzenesulfonyl fluoride] the Kd [1] was 0.32 nM.

In the case of `CCCn1c(=O)c2[nH]c(C3CCCCC3)nc2n(CCCc2ccc(S(=O)(=O)F)cc2)c1=O` [4-[3-(8-Cyclohexyl-2,6-dioxo-1-propyl-1,2,6,7-tetrahydro-purin-3-yl)-propyl]-benzenesulfonyl fluoride], the Kd [1] is reported as 0.37 nM.

In the case of `CCCn1c(=O)c2[nH]c(C3CCCCC3)nc2n(CCCNC(=O)c2ccc(S(=O)(=O)F)cc2)c1=O` [4-[3-(8-Cyclohexyl-2,6-dioxo-1-propyl-1,2,6,7-tetrahydro-purin-3-yl)-propylcarbamoyl]-benzenesulfonyl fluoride], the Kd [2] is reported as 0.34 nM, the Kd [3] is reported as 0.27 nM and the Kd [4] is reported as 0.28 nM. For the same compound, the Kd [5] was 0.37 nM.

In the case of `CCCn1c(=O)c2[nH]c(C3CCCC3)nc2n(CCCNC(=O)c2ccc(S(=O)(=O)F)cc2)c1=O` [4-[3-(8-Cyclopentyl-2,6-dioxo-1-propyl-1,2,6,7-tetrahydro-purin-3-yl)-propylcarbamoyl]-benzenesulfonyl fluoride], the Kd [6] is reported as 0.26 nM and the Kd [7] is reported as 0.24 nM.

In the case of `CCCn1c(=O)c2[nH]c(C3CCCCC3)nc2n(CCCCCc2ccc(S(=O)(=O)F)cc2)c1=O` [4-[5-(8-Cyclohexyl-2,6-dioxo-1-propyl-1,2,6,7-tetrahydro-purin-3-yl)-pentyl]-benzenesulfonyl fluoride], the Kd [1] is reported as 0.81 nM.
